Data published in patent publication US20150259371A1, “METHODS AND COMPOUNDS FOR INHIBITING GLYCOSYLTRANSFERASES” (SIMON FRASER UNIVERSITY, priority 2010, published 2015).

Tested on: O-GlcNAc levels in COS-7 cells
Assay: Western blot of O-GlcNAc levels (CTD110.6) in treated COS-7 cells
Format: cell-based, African green monkey
Conditions: 50 μM, 24 h
Description: Cell culture: Cells were grown in an incubator at 37° C. and 5% CO2 atmosphere. Media and serum were purchased from Invitrogen. COS-7 cells were cultured in Dulbecco's modified Eagle's medium (DMEM) with 5% fetal bovine serum (FBS), and were typically 80-100% confluent prior to experimentation. HepG2, SK-N-SH, and EMEG32^−/− cells were cultured in Dulbecco's modified Eagle's medium (DMEM) with 5% fetal bovine serum (FBS), CHO cells in DMEMF-12 with 5% FBS and PC12 cells in DMEM with 5% FBS and 5% horse serum. Prior to experimentation, PC12 cells were plated at a density of 3-4×10^5 cells10 cm plate, which had been pre-treated with 5 μgcm^2 rat tail collagen (BD Biosciences). Cells were differentiated in DMEM containing 1% horse serum, in the presence of 2.5S mouse nerve growth factor (Chemicon) at a final concentration of 25 ng mL^−1, for 4-5 days prior to treatment. Other cell lines were 80-100% confluent prior to treatment. Following treatment with (Ac-)5SGlcNAc, using various conditions, cells were washed gently with PBS, lysed in SDS loading buffer and boiled for 10 minutes. Mouse hybridoma cells (obtained from the Developmental Studies Hybridoma Bank; antibody E7 for (:1-tubulin) were cultured in RPMI40 with 10% FBS. Prior to treatment with Ac-5SGlcNAc, hybridoma cells were cultured for 2 days in RPMI40 with 5% FBS, and during treatment in RPMI40 with no serum. Cells were collected, centrifuged (800 x g, 5 min) and the supernatant removed. Cells were washed with PBS, centrifuged, the pellet resuspended in SDS loading buffer and boiled. The supernatant after centrifugation, which contained the IgG antibody produced by the cells, was used for immunoprecipitation (see below for details).
Westernlectin blots: Samples were run on 10% SDS polyacrylamide gels and transferred onto nitrocellulose membranes (Biorad). Membranes were blocked for 1 h in PBS containing 0.1% Tween-20 (PBS-T) containing 1% (unless otherwise stated) bovine serum albumin (BSA), and probed with the appropriate primary antibody or lectin in 1% BSA in PBS-T overnight at 4° C. Blots were washed for 1 hr with PBS-T, and blocked for a further 30 min with 1% BSA in PBS-T at room temperature. They were then probed with the appropriate horseradish peroxidise (HRP)-conjugated secondary antibodyprobe in 1% BSA in PBS-T at room temperature for 1 h, followed by washing in PBS-T for 1 h. Blots were developed with SuperSignal West Pico Chemiluminescent Substrate (Pierce) and exposed to CL-XPosure film (Pierce). Densitometry was performed using ImageQuant 5.2 (Molecular Dynamics), and fits to the data were made using GRAFIT^41.
Antibodieslectins: O-GlcNAc levels were assessed primarily using CTD110.6 (Covance), but RL2 (Abcam) and HGAC85 (Abcam) were also tested. Actin was probed using JLA20 (Developmental Studies Hybridoma Bank). OGA levels were assessed using a polyclonal anti-OGA antibody which was a kind gift from Dr. Gerald Hart and OGT levels using H-300 (Santa Cruz Biotechnology). nup62 was probed using mAb 414 (Covance). Secondary antibodies employed (HRP-conjugated goat anti-mouse IgM, goat anti-mouse IgG, goat anti-chicken IgY and goat anti-rabbit IgG) were obtained from Santa Cruz Biotechnology. Biotinylated-ConA, PHA-L, SNA and MAA were purchased from EY Laboratories, and biotinylated-GNA from Vector Laboratories. HRP-conjugated streptavidin (Pierce) was used as a probe for the biotinylated lectins.
Analogues (9, 10, 17-41) were tested in COS-7 cells, dosed at a final concentration of 50 μM in DMSO for 24 h. Following treatment, cells were washed with PBS, harvested into SDS-PAGE loading buffer and analyzed by western blot using standard procedures; blots were probed with the anti-O-GlcNAc antibody (CTD 110.6).

SMILES	effect on O-GlcNAc levels at single dose	extent of decrease of O-GlcNAc levels relative to parent compound 9
O=C(Cc1cccc2ccccc12)NC1C(O)SC(CO)C(O)C1O [Compound 36, N-(1-Naphthylacetyl)-α-D-5-thio-glucosamine]	decreased O-GlcNAc levels in cells	–
CC(=O)OC[C@H]1S[C@H](OC(C)=O)[C@H](N)[C@@H](OC(C)=O)[C@@H]1OC(C)=O.O=S(=O)(O)O [Compound 31′, 1,3,4,6-tetra-O-acetyl-a-D-5-thio-glucosamine sulphuric acid salt]	decreased O-GlcNAc levels in cells	–
O=C(CC1CCCCC1)NC1C(O)SC(CO)C(O)C1O [Compound 34, N-(2-cyclohexylacetyl)-a-D-5-thio-glucosamine]	decreased O-GlcNAc levels in cells	–
CCCCCC(=O)NC1C(OC(C)=O)SC(COC(C)=O)C(OC(C)=O)C1OC(C)=O [Compound 27, N-hexonoyl-1,3,4,6-tetra-O-acetyl-a-D-5-thio-glucosamine]	decreased O-GlcNAc levels in cells	comparable extent to the parent compound
CC(=O)OCC1SC(OC(C)=O)C(NC(=O)CC2CCCCC2)C(OC(C)=O)C1OC(C)=O [Compound 33, N-(2-Cyclohexylacetyl)-1,3,4,6-tetra-O-acetyl-a-D-5-thio-glucosamine]	decreased O-GlcNAc levels in cells	–
CC(=O)OCC1SC(OC(C)=O)C(NC(=O)CC(C)C)C(OC(C)=O)C1OC(C)=O (stereo not drawn) [Compound 25]	decreased O-GlcNAc levels in cells	–
CCC(=O)NC1C(OC(C)=O)SC(COC(C)=O)C(OC(C)=O)C1OC(C)=O [Compound 17, N-proprionyl-1,3,4,6-tetra-O-acetyl-α-D-5-thio-glucosamine]	decreased O-GlcNAc levels in cells	–
CC[C@H](C)CC(=O)NC1C(OC(C)=O)SC(COC(C)=O)C(OC(C)=O)C1OC(C)=O (stereo partly drawn) [Compound 37, N-[(S)-methylvaleryl]-1,3,4,6-tetra-O-acetyl-α-D-5-thio-glucosamine]	decreased O-GlcNAc levels in cells	comparable extent to the parent compound
CCCC(=O)NC1C(OC(C)=O)SC(COC(C)=O)C(OC(C)=O)C1OC(C)=O [Compound 19, N-(n-butyryl)-1,3,4,6-tetra-O-acetyl-a-D-5-thio-glucosamine]	decreased O-GlcNAc levels in cells	–
CCCCC(=O)NC1C(OC(C)=O)SC(COC(C)=O)C(OC(C)=O)C1OC(C)=O [Compound 23, N-(n-valeryl)-1,3,4,6-tetra-O-acetyl-α-D-5-thio-glucosamine]	decreased O-GlcNAc levels in cells	–
CCC[C@H](C)C(=O)N[C@@H]1[C@@H](O)[C@H](O)[C@@H](CO)S[C@@H]1O [Compound 38, N-[(S)-2-methylvaleryl]-a-D-5-thio-glucosamine]	decreased O-GlcNAc levels in cells	comparable extent to the parent compound
CC(=O)OCC1SC(OC(C)=O)C(NC(=O)Cc2cccc3ccccc23)C(OC(C)=O)C1OC(C)=O [Compound 35, N-(1-naphthylacetyl)-1,3,4,6-tetra-O-acetyl-α-D-5-thio-glucosamine]	decreased O-GlcNAc levels in cells	–
CC(=O)OCC1SC(OC(C)=O)C(NC(=O)C(C)C)C(OC(C)=O)C1OC(C)=O [Compound 21, N-(i-butyryl)-1,3,4,6-tetra-O-acetyl-a-D-5-thio-glucosamine]	decreased O-GlcNAc levels in cells	–

Same assay, conditions: 24 hours

SMILES	effect on O-GlcNAc levels, dose response
CC(=O)NC1C(O)SC(CO)C(O)C1O [Compound 10, N-acetyl-α-D-5-thio-glucosamine]	decreased O-GlcNAc levels in a dose-dependent fashion

Same assay, conditions: Chlorocebus sabaeus, 24 h, densitometry of western blot, read-out: EC50 for reduction of O-GlcNAc levels

SMILES	EC50
CC(=O)NC1C(O)SC(CO)C(O)C1O [Compound 10, N-acetyl-α-D-5-thio-glucosamine]	700 µM

Biological target: T1, OGA (Homo sapiens, UniProt O60502)
T1 construct: made in house
T1 sequence (O60502 1-916): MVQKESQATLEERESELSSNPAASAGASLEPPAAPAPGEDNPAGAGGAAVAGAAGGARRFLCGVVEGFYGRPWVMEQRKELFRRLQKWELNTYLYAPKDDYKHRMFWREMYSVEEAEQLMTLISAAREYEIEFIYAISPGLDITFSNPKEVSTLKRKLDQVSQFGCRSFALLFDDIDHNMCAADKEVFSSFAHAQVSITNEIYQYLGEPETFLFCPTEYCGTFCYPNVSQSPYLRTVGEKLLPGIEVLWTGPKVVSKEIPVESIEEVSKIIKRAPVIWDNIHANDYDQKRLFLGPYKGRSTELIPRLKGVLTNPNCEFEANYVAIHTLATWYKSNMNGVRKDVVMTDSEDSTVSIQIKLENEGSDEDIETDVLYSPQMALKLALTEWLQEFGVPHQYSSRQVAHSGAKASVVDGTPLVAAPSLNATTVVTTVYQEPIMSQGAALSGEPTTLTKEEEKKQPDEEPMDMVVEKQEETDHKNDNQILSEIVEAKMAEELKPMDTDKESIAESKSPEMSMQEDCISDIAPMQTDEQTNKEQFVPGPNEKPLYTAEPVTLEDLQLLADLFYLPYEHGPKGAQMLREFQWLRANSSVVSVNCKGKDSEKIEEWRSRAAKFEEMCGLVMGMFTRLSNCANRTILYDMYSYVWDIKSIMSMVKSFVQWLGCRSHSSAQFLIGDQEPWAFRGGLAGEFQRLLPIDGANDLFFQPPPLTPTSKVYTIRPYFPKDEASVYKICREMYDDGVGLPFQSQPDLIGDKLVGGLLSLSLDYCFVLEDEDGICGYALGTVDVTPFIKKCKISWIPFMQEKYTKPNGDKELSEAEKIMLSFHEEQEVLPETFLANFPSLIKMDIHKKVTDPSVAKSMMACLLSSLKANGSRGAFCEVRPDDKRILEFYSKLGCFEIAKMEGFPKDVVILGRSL
Assay: OGA kinetics, Michaelis-Menten hydrolysis of pMP glycosides
Format: biochemical
Conditions: 37° C.
Description: OGA kinetics: Synthesis and characterization of para-methoxyphenyl-5SGlcNAc is described in Example II. Kinetics were performed at 37° C. in PBS, pH 7.4 in a total volume of […]. Substrate concentrations of 25 μM to 1.5 mM were used for pMP-GlcNAc and 25 to 800 μM for pMP-5SGlcNAc. OGA (which was over-expressed and purified as described in Ref. ^42) was used at a concentration of 1 μM for pMP-GlcNAc and 3.6 μM for pMP-5SGlcNAc. Rates were monitored at a wavelength of 296 nm over the course of 10-20 min. Data were fit to the Michaelis-Menten equation in GRAFIT^41 and the kcat and KM values determined.

kcat for OGA hydrolysis	Km	SMILES
0.28 nmol s^−1 me	–	COc1ccc(O[C@H]2S[C@H](CO)[C@@H](O)[C@H](O)[C@H]2NC(C)=O)cc1 [Compound 14, para-Methoxyphenyl 2-acetamido-2-deoxy-5-thio-α-D-glucopyranoside]
14.3 nmol/s/mg	350 µM	COc1ccc(O[C@@H]2O[C@H](CO)[C@@H](O)[C@H](O)[C@H]2NC(C)=O)cc1 [pMP-GlcNAc, para-methoxyphenyl-GlcNAc, reference compound]

Same assay, conditions: human OGA

Vmax/E0KM for OGA hydrolysis	fold less efficiently processed by OGA than pMP-GlcNAc	SMILES
8.1 μmol s^−1 mg^−1 M^−1	5 fold	COc1ccc(O[C@H]2S[C@H](CO)[C@@H](O)[C@H](O)[C@H]2NC(C)=O)cc1 [Compound 14, para-Methoxyphenyl 2-acetamido-2-deoxy-5-thio-α-D-glucopyranoside]
40.7 μmol s^−1 mg^−1 M^−1	–	COc1ccc(O[C@@H]2O[C@H](CO)[C@@H](O)[C@H](O)[C@H]2NC(C)=O)cc1 [pMP-GlcNAc, para-methoxyphenyl-GlcNAc, reference compound]
